pEC50: −log10 of the molar value. A value given as a limit tells only on which side of the number the result lay.

One data set concerns P4 cells. In words: Cytotoxicity (CC50), MTT assay on P4 cells. The following applies: 3 days. It is filed as cell-based. The method, then:
(§1) For the antiviral and the cytotoxicity assays, the drugs were diluted in complete DMEM medium. In these experiments, drugs were diluted in triplicate wells in a 96-well plate in six, 5 fold serial dilutions.
(§2) The 50% cytotoxic concentration (CCso) was determined using a protocol adapted from Pauwels et al. (1988. J. Virol. Methods 20(4):309-21). Briefly, flat bottom 96-well plates were filled with 50 μl of complete medium containing 5.10^3 P4 cells. 2 hours later 50 μl of drug solution were added to the cells. Drugs (dissolved in DMEM, see above) were diluted in six, 5-fold serial dilutions from stock solutions in triplicate wells of a 96-well plate. Cells and compounds were incubated at 37° C. in growth medium for 3 days. Cell viability was determined by MTT assays using the Roche Cell Proliferation KIT. The absorbance (λ=570 nm) was measured on a Benchmark™ Microplate Reader (Biorad) and compared with 12 cell control replicates (no drug added). Each assay was performed at least three times for a total of at least nine replicate wells. This method detects both cytostatic and cytolytic effects of drugs.
Turning to `CCOC(=O)c1c(OC2CCCC(C)C2)c(CC)c(C)[nH]c1=O` (stereo not shown) [Z30], the 50% cytotoxic concentration (CC50) was > 100 µM.
With `CCOC(=O)c1c(OC2CC(C)CC(C)C2)c(CC)c(C)[nH]c1=O` (single isomer, unassigned) [Z37A], the CC50 turned out to be 63 µM.
Take `CCOC(=O)c1c(OC2CCCCCC2)c(CC)c(C)[nH]c1=O` [Z25]: the CC50 came to 81 µM.
Turning to `CCOC(=O)c1c(OC2CCCCC2Cl)c(CC)c(C)[nH]c1=O` (stereo not shown) [Z12], the CC50 was > 100 µM.
As to `CCOC(=O)c1c(OC2CCCCCCC2)c(CC)c(C)[nH]c1=O` [Z54], the half-maximal cytotoxic concentration (CC50) was 58 µM.

Test system in the next data set: not listed separately
The data set can be described thus: Cytotoxicity (CC50), MTT assay on P4 cells. In kind it is cell-based. As to conditions: human. The method, then: as §1, §2
As to `CCc1c(C)[nH]c(=O)c(COC(=O)CCl)c1OC1CCCCCC1` [Z33, [4-(cycloheptyloxy)-5-ethyl-6-methyl-2-oxo-1,2-dihydropyridin-3-yl]methyl chloroacetate], the CC50 at 3 days turned out to be 54 µM.
Take `CCOC(=O)c1c(OC(=O)C=C(C)C)c(CC)c(C)[nH]c1=O` [M18, ethyl 5-ethyl-6-methyl-4-[(3-methylbut-2-enoyl)oxy]-2-oxo-1,2-dihydropyridine-3-carboxylate]: the CC50 at 3 days was > 100 µM.

The target of a further data set is T1, HIV-1 reverse transcriptase (Human immunodeficiency virus type 1 group M subtype B, UniProt P04585).
T1 construct: fixed-time assay for HIV-1 reverse transcriptase RNA dependent DNA polymerase activity; RT was purchased from Calbiochem; purchased Calbiochem CAL382129-500
In words: HIV-1 in vitro reverse transcriptase activity (fixed-time RNA dependent DNA polymerase assay). It is filed as biochemical. As to conditions: residual RT activity, compound at 10 μM; RT activity without compound set at 100%. The method, then:
For the in vitro inhibition studies of the HIV-1 reverse transcriptase activity, stock solutions of the compounds of the present invention were prepared in dimethyl sulfoxide at a final concentration of 10 mM and kept at room temperature. Nevirapine was purchased from Boehringer Ingelheim. Efavirenz was received from the NIH AIDS Research and Reference Reagent Program.
In vitro inhibition studies used a fixed-time assay for HIV-1 reverse transcriptase RNA dependent DNA polymerase activity. RT was purchased from Calbiochem (ref CAL382129-500). One unit of RT corresponds to the amount of enzyme which incorporates one nanomole of [^3H]TTP in 10 minutes at 37° C.
Assays were performed in a final volume of 50 μl. […] Reaction mixtures were incubated at 37° C. for 10 min. The incorporation rate was determined by a standard trichloroacetic acid precipitation procedure (adapted from Current protocols in molecular biology. Eds Wiley, MGH Harvard medical school) and liquid scintillation counting using a Wallac scintillation counter.
The in vitro activity of the compounds, at a final concentration of 10 μM, on the reverse transcriptase (RT) activity of HIV-1 is derivable from the relative (%) reduction in RT activity. Hereby, the RT activity in the absence of any of the compounds is set at 100%.
As for `CCc1c(C)[nH]c(=O)c(COC(=O)CCl)c1OC1CCCCCC1` [Z33, [4-(cycloheptyloxy)-5-ethyl-6-methyl-2-oxo-1,2-dihydropyridin-3-yl]methyl chloroacetate], the “Relative (%) RT activity in vitro (compound added at 10 μM)” value (“Relative (%) RT activity in vitro” below) is 42.0%.
With `CCOC(=O)c1c(OC(=O)C=C(C)C)c(CC)c(C)[nH]c1=O` [M18, ethyl 5-ethyl-6-methyl-4-[(3-methylbut-2-enoyl)oxy]-2-oxo-1,2-dihydropyridine-3-carboxylate], the “Relative (%) RT activity in vitro” value is on record as 70.8%.
As to `CCOC(=O)c1c(OC2CCCC(C)C2)c(CC)c(C)[nH]c1=O` (stereo not shown) [Z30], the “Relative (%) RT activity in vitro” value was found to be 22.0%.
Still for that read-out and setting: under `CCOC(=O)c1c(OC2CC(C)CC(C)C2)c(CC)c(C)[nH]c1=O` (single isomer, unassigned) [Z37A] stands 7.6%.
Same read-out and setting: the result for `CCOC(=O)c1c(OC2CCCCCC2)c(CC)c(C)[nH]c1=O` [Z25] reads 34.6%.
As to `CCOC(=O)c1c(OC2CCCCC2Cl)c(CC)c(C)[nH]c1=O` (stereo not shown) [Z12], the “Relative (%) RT activity in vitro” value was found to be 63.7%.
Still for that read-out and setting: the result for `CCOC(=O)c1c(OC2CCCCCCC2)c(CC)c(C)[nH]c1=O` [Z54] reads 24%.

Test system in another data set: not given
Experiment: not given
Conditions: not given
As to `CCc1c(C)[nH]c(=O)c(COC(=O)CCl)c1OC1CCCCCC1` [Z33, [4-(cycloheptyloxy)-5-ethyl-6-methyl-2-oxo-1,2-dihydropyridin-3-yl]methyl chloroacetate], the melting point turned out to be 123 °C.
`CCOC(=O)c1c(OC(=O)C=C(C)C)c(CC)c(C)[nH]c1=O` [M18, ethyl 5-ethyl-6-methyl-4-[(3-methylbut-2-enoyl)oxy]-2-oxo-1,2-dihydropyridine-3-carboxylate] came in with a melting point of 166 °C.

The next data set deals with HIV-1 mutant Cys188RT in P4 cells. In words: Anti-HIV assay on P4 cells, Cys188RT mutant. In kind it is cell-based.
Conditions: not given
The source says: In order to introduce mutation(s) at the level of the pol gene coding for the RT in the pNL4-3 plasmid containing the complete viral genome (Adachi et al., 1986. J. Virol., Vol. 59 p 284-291) we used the “Quick change mutagenesis kit” (Stratagene). The following mutations were separately introduced in pNL4-3: L100I, K103N, V108I, Y181C, Y188C, and the double mutations K103N/V108I. These mutations were chosen because of the resistance that they confer to existing NNRTI. The production procedure of the mutant viral stocks is identical to the one described above.
Anti-HIV activity and cytotoxicity of the compounds were tested on a P4 cell line. The P4 cell line (Clavel & Charneau, 1994. J. Virol., Vol. 68 p 1179-1185) was provided by Dr. François Clavel (Unité de recherche antivirale de l'hôpital Xavier Bichat Paris: Inserm). The P4 cells were cultured in complete DMEM medium supplemented with 10% fetal bovine serum (FBS), 0.5% of Penicillin/Streptomycin and G418 at 0.5 mg/ml. Exponentially growing cells were trypsinized, centrifuged and split twice weekly at 5.10^4 cells/ml.
The P4 cells are HIV-infectible Hela-CD4 cells that carry the bacterial lacZ gene under the control of the HIV-1 long terminal repeat (LTR). In this cell line, transcription of the LacZ gene is driven by the HIV-1 LTR. As such, the cytoplasmic accumulation of β-galactosidase is strictly dependent on the presence of the HIV transactivator Tat produced during the intracellular viral replication (Clavel & Charneau, 1994. J. Virol., Vol. 68, p. 1179-1185). In other words, in this system, the expression level of the β-galactosidase gene is proportional to the viral replication.
(§3) Briefly, in the anti-HIV assay 100 Ål of P4 cells were plated in 96-well plate at a concentration of 0.4 10^5 cells/ml and incubated at 37° C., 5% CO2. After 48 h, the medium was removed and 100 Ål of the different drugs dilutions were added to the cells. Four hours after the addition of the drugs all cells were infected with equal amount of cell-free virus, corresponding to 100 ng of HIV p24 antigen. After 48 h of incubation at 37° C., 5% CO2, β-galactosidase activity was measured using chlorophenol red-β-D-galactopyranoside assays.
The absorbance was measured on a Benchmark™ Microplate Reader (Biorad) (λ=570 nm) and compared with 12 cell control replicates (no virus or drug added) and 12 virus control wells (no drug added). Each assay was performed a minimum of three times. The 50% effective concentration (Ec50) was calculated from each dose response curve using the CurveExpert 1.3 software. As Nevirapine activity corresponds to its published values (10-100 nM), the data are consistent with other measures of viral replication.
For the compound `CCOC(=O)c1c(OC2CCCCCC2)c(CC)c(C)[nH]c1=O` [Z25], the “activity on Cys188 mutant strains compared with the cyclohexyl derivative” value is reported as “more active on Cys188 mutant strains than the cyclohexyl derivative”.

Still in this data set, the particulars now being: Table 8, effect of the R2 substituent; cell line not given; read-out: EC50 Cys188RT.
Take `CCOC(=O)c1c(OC2CCCCCC2)c(CC)c(C)[nH]c1=O` [Z25]: the pEC50 is 5.48.

For a further data set, the system named is HIV-1 with WT (wild type) RT in P4 cells. The data set can be described thus: Anti-HIV assay on P4 cell line, WT RT. In kind it is cell-based. The following applies: Human immunodeficiency virus 1, read-out: EC50 WT. The protocol: as §1
Two days later, co-cultivation with SupT1 cells (a human T-cell lymphoma cell line) was initiated to facilitate rapid production of progeny virions. Production of virus was measured by using the Innotest HIV Antigen mAb p24 kit (Innogenetics). At the peak of production cultures were harvested and filtered. The virus stocks were stored at −80° C. until used.
Anti-HIV activity and cytotoxicity of the compounds were tested on a P4 cell line. […] The P4 cells were cultured in complete DMEM medium supplemented with 10% fetal bovine serum (FBS), 0.5% of Penicillin/Streptomycin and G418 at 0.5 mg/ml. Exponentially growing cells were trypsinized, centrifuged and split twice weekly at 5.10^4 cells/ml.
The P4 cells are HIV-infectible Hela-CD4 cells that carry the bacterial lacZ gene under the control of the HIV-1 long terminal repeat (LTR). In this cell line, transcription of the LacZ gene is driven by the HIV-1 LTR. […] In other words, in this system, the expression level of the β-galactosidase gene is proportional to the viral replication.
as §3
Each assay was performed a minimum of three times. The 50% effective concentration (Ec50) was calculated from each dose response curve using the CurveExpert 1.3 software.
With `CCOC(=O)c1c(OC(=O)C=C(C)C)c(CC)c(C)[nH]c1=O` [M18, ethyl 5-ethyl-6-methyl-4-[(3-methylbut-2-enoyl)oxy]-2-oxo-1,2-dihydropyridine-3-carboxylate], the pEC50 was 5.24.

The same data set, now with this note: Human immunodeficiency virus 1; P4 cell line, WT RT; read-out: EC50 WT.
Consider `CCc1c(C)[nH]c(=O)c(COC(=O)CCl)c1OC1CCCCCC1` [Z33, [4-(cycloheptyloxy)-5-ethyl-6-methyl-2-oxo-1,2-dihydropyridin-3-yl]methyl chloroacetate], for which the negative-log EC50 (pEC50) is 5.99.

The same data set, now with this note: P4 cell line, WT RT.
On to `CCc1c(C)[nH]c(=O)c(COC(=O)CCl)c1OC1CCCCCC1` [Z33, [4-(cycloheptyloxy)-5-ethyl-6-methyl-2-oxo-1,2-dihydropyridin-3-yl]methyl chloroacetate], for which the “SI (selectivity index = CC50/EC50)” value turned out to be 52.
The same measure, in the same setting: under `CCOC(=O)c1c(OC(=O)C=C(C)C)c(CC)c(C)[nH]c1=O` [M18, ethyl 5-ethyl-6-methyl-4-[(3-methylbut-2-enoyl)oxy]-2-oxo-1,2-dihydropyridine-3-carboxylate] stands >17.

Staying with this data set, now noted: P4 cell line, WT RT; read-out: EC50 WT.
As for `CCOC(=O)c1c(OC2CCCC(C)C2)c(CC)c(C)[nH]c1=O` (stereo not shown) [Z30], the pEC50 was 6.28.
Consider `CCOC(=O)c1c(OC2CC(C)CC(C)C2)c(CC)c(C)[nH]c1=O` (single isomer, unassigned) [Z37A], for which the pEC50 is 6.62.
Regarding `CCOC(=O)c1c(OC2CCCCCC2)c(CC)c(C)[nH]c1=O` [Z25], the pEC50 is 6.32.
The same measure, in the same setting: under `CCOC(=O)c1c(OC2CCCCC2Cl)c(CC)c(C)[nH]c1=O` (stereo not shown) [Z12] stands 5.51.
Consider `CCOC(=O)c1c(OC2CCCCCCC2)c(CC)c(C)[nH]c1=O` [Z54], for which the pEC50 is 5.87.

Still in this data set, the particulars now being: Table 8, effect of the R2 substituent; cell line not given; read-out: EC50 WT.
For the compound `CCOC(=O)c1c(OC2CCCCCC2)c(CC)c(C)[nH]c1=O` [Z25], the pEC50 is 6.32.
